The values that follow come from ChEMBL document CHEMBL5236585, “Design, synthesis and antifungal activities of novel triazole derivatives with selenium-containing hydrophobic side chains” (Bioorg Med Chem Lett, 2022).

Experiment [1] relates to Aspergillus fumigatus. The experiment can be described thus: Antifungal activity against Aspergillus fumigatus CGMCC 3.7795 assessed as inhibition of fungal growth by microdilution method. The experiment is classed as functional.
In experiment [2] the test system is Pichia kudriavzevii. The experiment can be described thus: Antifungal activity against Candida krusei AS 2.1045 assessed as inhibition of fungal growth by microdilution method. It counts as functional. (In general: Broth dilution looks for growth in wells or tubes with falling amounts of substance.)
In experiment [3] the test system is Candida tropicalis. In words: Antifungal activity against Candida tropicalis CGMCC 2.3739 assessed as inhibition of fungal growth by microdilution method. It counts as functional.
Experiment [4] has as its system Candida albicans. In words: Antifungal activity against Candida albicans CPCC 400616 assessed as inhibition of fungal growth by microdilution method. The experiment is classed as functional.
The subject of experiment [5] is Candida parapsilosis. The experiment can be described thus: Antifungal activity against Candida parapsilosis 22019 assessed as inhibition of fungal growth by microdilution method. The experiment is classed as functional. As to conditions: Lodderomyces parapsilosis.
For experiment [6], the system named is Candida albicans. In words: Antifungal activity against Candida albicans ATCC SC5314 assessed as inhibition of fungal growth by microdilution method. It counts as functional.
The subject of experiment [7] is Cryptococcus neoformans. In words: Antifungal activity against Cryptococcus neoformans CGMCC 2.3161 assessed as inhibition of fungal growth by microdilution method. It counts as functional.
Experiment [8] concerns Nakaseomyces glabratus. In words: Antifungal activity against clinical isolate Candida glabrata assessed as inhibition of fungal growth by microdilution method. The experiment is classed as functional.
Experiment [9] concerns HL-60. The experiment can be described thus: Cytotoxicity against human HL-60 cells assessed as inhibition of cell growth by MTT assay. The experiment is classed as functional, cell-based. In general terms: Formazan colour is commonly taken as a measure of viable cells.

Broadly, the MIC is the least concentration at which growth counts as inhibited. As a reminder, the IC50 is the concentration that inhibits the measured activity by half.

The structures appear in SMILES notation. Where only a bound is given, the exact number is not on record here.

Turning to `Cc1cccc(C[Se]CC(O)(Cn2cncn2)c2ccc(F)cc2F)c1` (stereo not drawn), the MIC is 4 µg/mL in [1]; 2 µg/mL in experiment [2]; 1 µg/mL in [3]; 0.125 µg/mL in experiment [4]; 0.25 µg/mL in experiment [5]; 0.06 µg/mL in [6]. For the same compound, the MIC was found to be 1 µg/mL in experiment [7] and 4 µg/mL in experiment [8].
As for `COc1cccc2c1C(=O)c1c(O)c3c(c(O)c1C2=O)C[C@@](O)(C(=O)CO)C[C@@H]3O[C@H]1C[C@H](N)[C@H](O)[C@H](C)O1` [DOXORUBICIN], in experiment [9], the IC50 was less than 125 nM.
With `CCc1ccccc1[Se]CC(O)(Cn1cncn1)c1ccc(F)cc1F` (stereo not drawn), the minimal inhibitory concentration (MIC) in experiment [1] was 4 µg/mL; in [2] it was 1 µg/mL; in experiment [3], 2 µg/mL; in experiment [4] it was 0.25 µg/mL; in experiment [5], 0.25 µg/mL; in experiment [6] it was 0.5 µg/mL. The MIC is 0.5 µg/mL in [7] and 1 µg/mL in experiment [8].
In the case of `COc1cccc(C[Se]CC(O)(Cn2cncn2)c2ccc(F)cc2F)c1` (stereo not drawn), the MIC worked out at 4 µg/mL in experiment [1]; 8 µg/mL in [2]; 4 µg/mL in [3]; 0.25 µg/mL in experiment [4]; 0.25 µg/mL in experiment [5]; 0.125 µg/mL in [6]. The MIC in experiment [7] was found to be 2 µg/mL; in experiment [8] it was 4 µg/mL.
For the compound `Cc1cccc([Se]CC(O)(Cn2cncn2)c2ccc(F)cc2F)c1` (stereo not drawn), the MIC in experiment [1] stood at 8 µg/mL; in [2], 0.5 µg/mL; in [3], 1 µg/mL; in experiment [4], 0.25 µg/mL; in experiment [5], 0.5 µg/mL; in experiment [6], 0.125 µg/mL. In addition, the results for the MIC in experiment [7] and in experiment [8] were 0.5 µg/mL and 2 µg/mL, respectively.
On to `Cc1ccc(C[Se]CC(O)(Cn2cncn2)c2ccc(F)cc2F)cc1` (stereo not drawn), for which the minimal inhibitory concentration (MIC) amounted to 2 µg/mL in experiment [1]; 2 µg/mL in [2]; 1 µg/mL in experiment [3]; 0.125 µg/mL in experiment [4]; 0.25 µg/mL in experiment [5]; 0.06 µg/mL in experiment [6]. The results for the minimum inhibitory concentration (MIC) in experiment [7] and in experiment [8] were 1 µg/mL and 2 µg/mL, respectively.
For `OC(C[Se]c1ccc(F)cc1)(Cn1cncn1)c1ccc(F)cc1F` (stereo not drawn), the minimum inhibitory concentration (MIC) was found to be 4 µg/mL in experiment [1]; 2 µg/mL in experiment [2]; 0.5 µg/mL in [3]; 0.25 µg/mL in experiment [4]; 0.125 µg/mL in experiment [5]; 0.125 µg/mL in experiment [6]. In addition, the results for the minimal inhibitory concentration (MIC) in experiment [7] and in experiment [8] were 0.25 µg/mL and 4 µg/mL, respectively.
As to `Cc1ccccc1[Se]CC(O)(Cn1cncn1)c1ccc(F)cc1F` (stereo not drawn), the MIC in [1] was determined as 16 µg/mL; in experiment [2], 0.5 µg/mL; in experiment [3], 1 µg/mL; in experiment [4], 1 µg/mL; in experiment [5] it was 0.125 µg/mL; in experiment [6], 0.03 µg/mL. The MIC in [7] turned out to be 0.25 µg/mL; in [8] it was 0.5 µg/mL.
On to `OC(C[Se]Cc1cccc(F)c1)(Cn1cncn1)c1ccc(F)cc1F` (stereo not drawn), for which the minimal inhibitory concentration (MIC) in [1] amounted to 2 µg/mL; in experiment [2] it was 1 µg/mL; in experiment [3], 0.25 µg/mL; in experiment [4], 0.06 µg/mL; in [5] it was 0.25 µg/mL; in experiment [6], 0.03 µg/mL. For the same compound, the MIC in experiment [7] and in [8] was 2 µg/mL in each case.
In the case of `Cc1cccc(C)c1[Se]CC(O)(Cn1cncn1)c1ccc(F)cc1F` (stereo not drawn), the MIC is 4 µg/mL in experiment [1]; 0.125 µg/mL in experiment [2]; 1 µg/mL in experiment [3]; 0.06 µg/mL in experiment [4]; 0.25 µg/mL in experiment [5]; 0.5 µg/mL in experiment [6]. Besides, the MIC in [7] came to 0.25 µg/mL; in experiment [8], 1 µg/mL.
